Data as given in patent US12435037B2, “Acetylsalicylic acid derivative and application thereof” (Zhejiang Hanmai Pharmaceutical Technology Co., Ltd., priority 2018, dated 2025).

Columns and labels:
[1] = Metabolism in 10% diluted plasma, rat; details: 10% diluted rat plasma
in vitro = details: monkey, 10% monkey plasma diluent
[2] = Metabolism in 10% diluted plasma, mouse; details: 10% diluted mouse plasma
[3] = Plasma metabolic stability test in 10% monkey plasma diluent; details: 37° C.
[4] = test system: monkey platelet aggregation; experiment: Inhibitory effect on monkey platelet aggregation after transdermal administration; type: in vivo; details: cynomolgus monkeys, transdermal daily for four weeks (70 mg/kg; comparator 60 mg/kg), inducer 1 mM arachidonic acid
Protocol: The dose volume for a monkey was calculated based on its weight. The hair on the monkey's back was shaved, and the drug was evenly applied to the bare skin. The drug was administered continuously every day for four weeks. Blank blood was collected before administration, and blood was collected once a week after administration to detect the platelet aggregation ability (the inducer was 1 mM arachidonic acid).

For `CCN(CC)CCOC(=O)c1ccccc1OC(C)=O.Cl`, the “Highest acetylsalicylic acid concentration in plasma” value [1] was “BLOQ”, the C0 at 0 min, 1 μM/mL (in vitro) was 262 µg/mL and the “Highest acetylsalicylic acid concentration in plasma” value [2] was “BLOQ”. For the same molecule, the “concentration of the parent drug” value ([3]; 10 min) was 3.09 µg/mL, the “concentration of the parent drug” value ([3]; 30 min) was “undetectable” and the “inhibitory effect on platelet aggregation” value [4] was “cannot inhibit platelet aggregation effectively”. The platelet aggregation rate [4] was “about 50%”.
